Measured values: patent publication US20260083130A1, “NOVEL SULFONATE BENZAMIDE COMPOUNDS FOR CONTROLLING INVERTEBRATE PESTS” (FMC CORPORATION, priority 2022, published 2026)
Like-named read-outs stand apart in the source and are kept apart here.

Key:
Type in all cases: in vivo
[1] = test system: cotton melon aphid (Aphis gossypii (Glover)); assay: Test E: control of cotton melon aphid, spray on okra plant; conditions: 144 h; for mortality at 2 ppm: sprayed at 2 ppm; for mortality at 10 ppm: sprayed at 10 ppm
Experimental: (§1) Test compounds were formulated using a solution containing 10% acetone, 90% water and 300 ppm Activator 90® non-ionic surfactant (Loveland Products, Loveland, Colorado, USA). The formulated compounds were applied in 1 mL of liquid through an atomized nozzle positioned 1.27 cm (0.5 inches) above the top of each test unit. Test compounds were sprayed at the rates indicated, and each test was replicated three times.
For evaluating control of cotton melon aphid (Aphis gossypii (Glover)) through contact and/or systemic means, the test unit consisted of a small open container with a 5-day-old okra plant inside. This was pre-infested with 30-40 insects on a piece of leaf according to the cut-leaf method, and the soil of the test unit was covered with a layer of sand.
Test compounds were formulated and sprayed at 250, 50, 10, and 2 ppm with three replications as described above. After spraying, the test units were maintained in a growth chamber for 6 days at 19° C. and 70% relative humidity. Each test unit was then visually assessed for insect mortality.

[2] = test system: Corn Planthopper (Peregrinus maidis (Ashmead)); assay: Test C: control of Corn Planthopper, spray on corn plant; conditions: 144 h, nymphs, assessed after 6 days; for mortality at 250 ppm: sprayed at 250 ppm; for mortality at 50 ppm: sprayed at 50 ppm
Experimental: as §1
For evaluating control of Corn Planthopper (Peregrinus maidis (Ashmead)) through contact and/or systemic means, the test unit consisted of a small open container with a 3- to 4-day-old corn (maize) plant inside. White sand was added to the top of the soil prior to application of the test compound.
Test compounds were formulated and sprayed at 250 and 50 ppm with three replications as described above. After spraying of the formulated test compound, the test units were allowed to dry for 1 h before they were post-infested with ˜15-20 nymphs (18-to-21-day-old). A black, screened cap was placed on the top of each test unit, and the test units were held for 6 days in a growth chamber at 22 to 24° C. and 50-70% relative humidity. Each test unit was then visually assessed for insect mortality.

[3] = test system: Green Peach Aphid (Myzus persicae (Sulzer)); assay: Test D: control of Green Peach Aphid, spray on radish plant; conditions: 144 h, assessed after 6 days; for mortality at 250 ppm: sprayed at 250 ppm
Experimental: as §1
For evaluating control of Green Peach Aphid (Myzus persicae (Sulzer)) through contact and/or systemic means, the test unit consisted of a small open container with a 12- to 15-day-old radish plant inside. Prior to compound application, each test unit was pre-infested by placing on a leaf of the test plant 30-40 aphids on a piece of leaf excised from a culture plant (cut-leaf method). The aphids moved onto the test plant as the leaf piece desiccated. After pre-infestation, the soil of the test unit was covered with a layer of sand.
Test compounds were formulated and sprayed at 250 and 50 ppm with three replications as described above. After spraying of the formulated test compound, each test unit was allowed to dry for 1 hour and then a black, screened cap was placed on top. The test units were held for 6 days in a growth chamber at 19-21° C. and 50-70% relative humidity. Each test unit was then visually assessed for insect mortality.

[4] = sprayed at 50 ppm, assessed after 6 days, read-out: mortality
[5] = sprayed at 250 ppm, assessed after 6 days, read-out: mortality

CC(NC(=O)c1cc(OS(=O)(=O)C(F)(F)F)cc(C(F)(F)F)c1)c1ncnn1-c1ncccn1 (centres unmarked) [Compound 2, 3-[[[1-[1-(2-Pyrimidinyl)-1H-1,2,4-triazol-5-yl]ethyl]amino]carbonyl]-5-(trifluoromethyl)phenyl 1,1,1-trifluoromethanesulfonate]
≥ 80%: mortality at 2 ppm ([1]; assessed after 6 days) | mortality at 10 ppm ([1]; assessed after 6 days) | mortality at 50 ppm [1, 4] | mortality at 250 ppm [1, 5]

CC(NC(=O)c1cccc(OS(=O)(=O)C(F)(F)F)c1)c1ncnn1-c1ncccn1 (centres unmarked) [Compound 3, 3-[[[1-[1-(2-Pyrimidinyl)-1H-1,2,4-triazol-5-yl]ethyl]amino]carbonyl]phenyl 1,1,1-trifluoromethanesulfonate]
≥ 80%: mortality at 50 ppm [1, 4] | mortality at 250 ppm [1, 5] | mortality at 250 ppm [2]

CC(NC(=O)c1cc(Cl)cc(OS(=O)(=O)C(F)(F)F)c1)c1ncnn1-c1ncccn1 (centres unmarked) [Compound 4, 3-Chloro-5-[[[1-[1-(2-pyrimidinyl)-1H-1,2,4-triazol-5-yl]ethyl]amino]carbonyl]phenyl 1,1,1-trifluoromethanesulfonate]
≥ 80%: mortality at 50 ppm ([3]; sprayed at 50 ppm) | mortality at 250 ppm [3] | mortality at 2 ppm ([1]; assessed after 6 days) | mortality at 10 ppm ([1]; assessed after 6 days) | mortality at 50 ppm [1, 4] | mortality at 250 ppm [1, 5] | mortality at 250 ppm [2]

CC(NC(=O)c1cccc(OS(=O)(=O)c2ccccc2)c1)c1ncnn1-c1ncccn1 (centres unmarked) [Compound 6, 3-[(Phenylsulfonyl)oxy]-N-[1-[1-(2-pyrimidinyl)-1H-1,2,4-triazol-5-yl]ethyl]benzamide]
≥ 80%: mortality at 250 ppm [1, 5]

CC(NC(=O)c1cccc(OS(=O)(=O)C(F)F)c1)c1ncnn1-c1ncccn1 (centres unmarked) [Compound 7, 3-[[[1-[1-(2-Pyrimidinyl)-1H-1,2,4-triazol-5-yl]ethyl]amino]carbonyl]phenyl 1,1-difluoromethanesulfonate]
≥ 80%: mortality at 50 ppm [1, 4] | mortality at 250 ppm [1, 5]

C[C@@H](NC(=O)c1cc(Cl)cc(OS(=O)(=O)C(F)(F)F)c1)c1ncnn1-c1ncccn1 [Compound 9, 3-Chloro-5-[[[1-[1-(2-pyrimidinyl)-1H-1,2,4-triazol-5-yl]ethyl]amino]carbonyl]phenyl 1,1,1-trifluoromethanesulfonate; (+) enantiomer]
≥ 80%: mortality at 250 ppm [3] | mortality at 50 ppm [1, 4] | mortality at 250 ppm [1, 5] | mortality at 50 ppm [2] | mortality at 250 ppm [2]

CC(c1ncnn1-c1ncccn1)N(CC1CC1)C(=O)c1cc(Cl)cc(OS(=O)(=O)C(F)(F)F)c1 (centres unmarked) [Compound 10, 3-Chloro-5-[[(cyclopropylmethyl)[1-[1-(2-pyrimidinyl)-1H-1,2,4-triazol-5-yl]ethyl]amino]carbonyl]phenyl 1,1,1-trifluoromethanesulfonate]
≥ 80%: mortality at 2 ppm ([1]; assessed after 6 days) | mortality at 10 ppm ([1]; assessed after 6 days) | mortality at 50 ppm [1, 4] | mortality at 250 ppm [1, 5] | mortality at 50 ppm [2] | mortality at 250 ppm [2]

CC(c1ncnn1-c1ncccn1)N(CC1CC1)C(=O)c1cc(OS(=O)(=O)C(F)(F)F)cc(C(F)(F)F)c1 (centres unmarked) [Compound 11, 3-[[(Cyclopropylmethyl)[1-[1-(2-pyrimidinyl)-1H-1,2,4-triazol-5-yl]ethyl]amino]carbonyl]-5-(trifluoromethyl)phenyl 1,1,1-trifluoromethanesulfonate]
≥ 80%: mortality at 250 ppm [3] | mortality at 2 ppm ([1]; assessed after 6 days) | mortality at 10 ppm ([1]; assessed after 6 days) | mortality at 50 ppm [1, 4] | mortality at 250 ppm [1, 5] | mortality at 50 ppm [2] | mortality at 250 ppm [2]

C[C@H](NC(=O)c1cc(OS(=O)(=O)C(F)(F)F)cc(C(F)(F)F)c1)c1ncnn1-c1ncccn1 [Compound 12, 3-[[[(1S)-[1-(2-Pyrimidinyl)-1H-1,2,4-triazol-5-yl]ethyl]amino]carbonyl]-5-(trifluoromethyl)phenyl 1,1,1-trifluoromethanesulfonate; (−) enantiomer]
≥ 80%: mortality at 250 ppm [1, 5]

C[C@@H](NC(=O)c1cc(OS(=O)(=O)C(F)(F)F)cc(C(F)(F)F)c1)c1ncnn1-c1ncccn1 [Compound 13, (R)3-[[[1-[1-(2-Pyrimidinyl)-1H-1,2,4-triazol-5-yl]ethyl]amino]carbonyl]-5-(trifluoromethyl)phenyl 1,1,1-trifluoromethanesulfonate; (+) enantiomer]
≥ 80%: mortality at 250 ppm [3] | mortality at 2 ppm ([1]; assessed after 6 days) | mortality at 10 ppm ([1]; assessed after 6 days) | mortality at 50 ppm [1, 4] | mortality at 250 ppm [1, 5] | mortality at 50 ppm [2] | mortality at 250 ppm [2]

CC(NC(=O)c1cc(F)cc(OS(=O)(=O)C(F)(F)F)c1)c1ncnn1-c1ncccn1 (centres unmarked) [Compound 14, 3-Fluoro-5-[[[1-[1-(2-pyrimidinyl)-1H-1,2,4-triazol-5-yl]ethyl]amino]carbonyl]phenyl 1,1,1-trifluoromethanesulfonate]
≥ 80%: mortality at 50 ppm [1, 4] | mortality at 250 ppm [1, 5]

CC(NC(=O)c1cc(Br)cc(OS(=O)(=O)C(F)(F)F)c1)c1ncnn1-c1ncccn1 (centres unmarked) [Compound 15, 3-Bromo-5-[[[1-[1-(2-pyrimidinyl)-1H-1,2,4-triazol-5-yl]ethyl]amino]carbonyl]phenyl 1,1,1-trifluoromethanesulfonate]
≥ 80%: mortality at 50 ppm [1, 4] | mortality at 250 ppm [1, 5]

COC(=O)N(C(=O)c1cc(Cl)cc(OS(=O)(=O)C(F)(F)F)c1)C(C)c1ncnn1-c1ncccn1 (centres unmarked) [Compound 20]
≥ 80%: mortality at 50 ppm [1] | mortality at 250 ppm [1]

CCN(C(=O)c1cc(OS(=O)(=O)C(F)(F)F)cc(C(F)(F)F)c1)C(C)c1ncnn1-c1ncccn1 (centres unmarked) [Compound 27, 3-[[ethyl[1-[1-(2-pyrimidinyl)-1H-1,2,4-triazol-5-yl]ethyl]amino]carbonyl]-5-(trifluoromethyl)phenyl 1,1,1-trifluoromethanesulfonate]
≥ 80%: mortality at 50 ppm [1, 4] | mortality at 250 ppm [1, 5] | mortality at 250 ppm [2]

CC(NC(=O)c1cc(OS(=O)(=O)CC(F)(F)F)cc(C(F)(F)F)c1)c1ncnn1-c1ncccn1 (centres unmarked) [Compound 28]
≥ 80%: mortality at 250 ppm [1, 5]

CC(NC(=O)c1cc(OS(=O)(=O)C(F)F)cc(C(F)(F)F)c1)c1ncnn1-c1ncccn1 (centres unmarked) [Compound 38]
≥ 80%: mortality at 250 ppm [1, 5]

CC(NC(=O)c1cc(Cl)cc(OS(=O)(=O)C(F)F)c1)c1ncnn1-c1ncccn1 (centres unmarked) [Compound 39]
≥ 80%: mortality at 250 ppm [1, 5]

CC(NC(=O)c1cc(OS(=O)(=O)C(F)(F)F)cc([N+](=O)[O-])c1)c1ncnn1-c1ncccn1 (centres unmarked) [Compound 46]
≥ 80%: mortality at 50 ppm [1, 4] | mortality at 250 ppm [1, 5]

COC(=O)N(C(=O)c1cc(OS(=O)(=O)C(F)(F)F)cc(C(F)(F)F)c1)C(C)c1ncnn1-c1ncccn1 (centres unmarked) [Compound 48]
≥ 80%: mortality at 50 ppm [1] | mortality at 250 ppm [1]

CCN(C(=O)c1cc(Cl)cc(OS(=O)(=O)C(F)(F)F)c1)C(C)c1ncnn1-c1ncccn1 (centres unmarked) [Compound 50, 3-chloro-5-[[ethyl[1-[1-(2-pyrimidinyl)-1H-1,2,4-triazol-5-yl]ethyl]amino]carbonyl]phenyl 1,1,1-trifluoromethanesulfonate]
≥ 80%: mortality at 250 ppm [3] | mortality at 50 ppm [1, 4] | mortality at 250 ppm [1, 5] | mortality at 250 ppm [2]

CC(NC(=O)c1cc(Cl)cc(OS(=O)(=O)CC(F)(F)F)c1)c1ncnn1-c1ncccn1 (centres unmarked) [Compound 52]
≥ 80%: mortality at 250 ppm [1, 5]

CC(c1ncnn1-c1ncccn1)N(C)C(=O)c1cc(Cl)cc(OS(=O)(=O)C(F)(F)F)c1 (centres unmarked) [Compound 72]
≥ 80%: mortality at 250 ppm [3] | mortality at 2 ppm ([1]; assessed after 6 days) | mortality at 10 ppm ([1]; assessed after 6 days) | mortality at 50 ppm [1, 4] | mortality at 250 ppm [1, 5] | mortality at 50 ppm [2] | mortality at 250 ppm [2]
